Source: ChEMBL document CHEMBL3507680, “University of Dundee, Gates Library screen for HepG2 cell viability”

Assay: Human HepG2 cell viability assay in 384 well format
Format: toxicity, cell-based
Set-up: dose 125 nL, time 70.5 hour; cytotoxicity at 70.5 h: concentration not given beside the values
Settings: HepG2 cells, read-out: Inhibition

Compound	cytotoxicity at 70.5 h [%]
COCCN1C(=O)CC[C@@H]2[C@H]1CCN2C(=O)N(C)C	-8.72
NC1CCN(C(=O)c2c(F)cccc2Br)CC1	-15.6
CNC(=O)COC1COC2(CCN(Cc3ccncc3F)CC2)C1 (stereo not given)	-18
O=C(CCC1CCN(C2Cc3ccccc3C2)CC1)NCC1CCCO1 (stereo not given)	25.6
Cc1nnn2c1COC(CNCc1ccccn1)C2 (stereo not given)	-3.64
COc1ccc(CC(=O)Nc2cccnc2N2CCCC2)cc1OC	-1.14
CCc1ccc(OCCN(C)C(=O)c2ccncc2Cl)cc1	-5.33
Cc1ccc(C(NC(=O)CCCN2CCCCC2)C(=O)O)cc1 (stereo not given)	-12.7
COC(=O)c1ccc(N2CCN(Cc3csc(C)n3)CC2)nn1	-14.7
COc1ccc(CN2CC[C@@H]3CN(S(C)(=O)=O)CCO[C@@H]3C2)cc1	-2.97
O=C(c1ccco1)N1CCCC2(CCN(c3nncs3)C2)C1 (stereo not given)	-5.1
Cc1cc(CN(CC(N)=O)CC(C)C)no1	-4.27
CCCOc1ncccc1CNc1nnc(C)c(C)c1C#N	21.8
O=C(c1ccncc1F)N1CCN(CC2CC2)c2ncccc2C1	24.5
CC(C)c1nnc2n1CCN(C(=O)CN(C)Cc1ccccc1)C2	-1.56
CNc1oc(-c2ccc(OC)c(S(=O)(=O)N(C)C)c2)nc1C#N	-9.03
Cc1csc(Nc2nccnc2C2CCCN2S(C)(=O)=O)n1 (stereo not given)	-12.8
Cc1nc(C(C)C)ncc1C(=O)N1CCc2c(nc(N(C)C)[nH]c2=O)C1	-4.39
CC(NC(=O)NCCCn1ccnc1)c1ccc2c(c1)CCC(=O)N2 (stereo not given)	43.4
O=C(c1cc(-n2cccn2)ccc1Cl)N1CCCC(N2CCCC2)C1 (stereo not given)	-5.55
Cc1cncc(C2CCN(Cc3ccsc3)CC2)n1	4.8
Cc1nc(C)n(CC2CCCN2Cc2cscn2)n1 (stereo not given)	-9.32
CCNC(=O)c1ccoc1CN1c2ccccc2CC1C (stereo not given)	-5.21

Compound	cytotoxicity at 70.5 h [%]
Cc1cc(-c2cnc(NC3CCCC3)nc2-c2ccoc2C)on1	-8.8
CSc1ccc(CNC(=O)Cc2c(C)n[nH]c2C)cc1	-6.16
Cc1cc2nccc(C3CCN(C(=O)c4ccccc4F)CC3)n2n1	-4.04
COCC(O)CN(C)C(=O)NC1CCN(S(C)(=O)=O)CC1 (stereo not given)	-7.83
O=C(CC1CC1)NCc1cn2c(n1)CN(Cc1cccnc1)CC2	-8.95
COCCN1CCCC12CCN(c1ncccn1)CC2	-14.3
Cc1ccc2oc(C(=O)N3CCc4nnc(N(C)C)cc4C3)cc2n1	-3.29
O=C(Nc1nc(-c2ccccc2)ns1)N1CCC(CO)CC1	-12.6
CC(C)(C)c1cc(CNC(=O)c2cc(COc3ccccc3)[nH]n2)[nH]n1	8.48
COc1ccc(Cl)cc1CS(=O)(=O)CC(=O)NC(C)CCC(C)C (stereo not given)	-11.8
O=C(CCN1CCc2cncnc2C1)N1CCc2sccc2C1	-1.14
CC(C)N1CCOC(Cc2nn3c(Cc4ccccc4)nnc3s2)C1 (stereo not given)	-18.2
Cc1ccc(-c2nnc([C@H]3CCN(C4CCC4)C3)o2)cc1	16.3
CC(=O)N1CCC(C(=O)NCCN2CCCC(C)C2)CC1 (stereo not given)	-7.29
Cc1nc(NC2(CN3CCCCC3)CCCCC2)c2cnn(C)c2n1	-18.3
Cc1noc(C)c1CN1C[C@@H](N(C)Cc2ccco2)[C@H]2OCCC[C@H]21	-6.48
CCc1c(C)sc2nc3n(CCN4CCCCC4)nc(SC)n3c(=O)c12	13.4
COc1ccc(C(C)NCc2ccc(OC)c(OC)c2OC)cc1F (stereo not given)	31.6
CCN1CCN(C(=O)c2ccnc(N(C)C)c2)CC1	3.26
COc1ncc(C)cc1NC(=O)COCC(F)(F)F	2.73
COCCNC(=O)[C@@H]1CCO[C@@H]2CCN(c3ccc(C)nn3)C[C@@H]21	-15.8
CN(CC(C)(CO)CO)C(=O)Nc1cc(F)cc(F)c1	2.39
N#Cc1ccc(F)cc1Cn1cnc(C2CCC2)cc1=O	-9.04

Compound	cytotoxicity at 70.5 h [%]
CCC(C(=O)NCc1ccccn1)N(c1cccc(C)c1)S(C)(=O)=O (stereo not given)	-1.44
Cc1cccc(CN2CCN(c3nc(CO)cs3)CC2)c1	-4.76
CCc1nnc2n1CCN(Cc1ccc(C(=O)N3CCCC3)cc1)C2	-25.8
CS(=O)(=O)NCC1CCCN(C(=O)c2ccc(F)c(F)c2)C1 (stereo not given)	-1.98
O=C(C1CC1)N1CCN(Cc2ccncc2)c2ncccc2C1	-10.1
Cc1nccn1CCC1CCCCN1C(=O)c1ccc(N(C)C)cc1 (stereo not given)	-3.37
Cc1nccn1CCC1CCCCN1C(=O)c1ccc2nonc2c1 (stereo not given)	-1.05
CCc1noc(-c2ccc(SCC(=O)O)nc2)n1	13.8
CCc1ccc(S(=O)(=O)NCCC(O)c2ccoc2)s1 (stereo not given)	-10.1
CCn1cnnc1C1CCN(C(=O)c2ccc(Cl)s2)CC1	-15
CCN(Cc1ccc(Cl)s1)S(=O)(=O)CCOC	-13.3
Cc1cccc(Nc2cc(C)nc(C3CCN(C(C)C)C3)n2)n1 (stereo not given)	15.7
Cc1noc(C)c1CCC(=O)N[C@@H]1CCC[C@@H](Oc2cccnc2)[C@@H]1O	-3.39
CC(C)c1noc(C(C)N2CCN(Cc3ccccc3C#N)CC2)n1 (stereo not given)	2.84
Fc1ccccc1CN1C[C@@H](OCc2ccncc2)[C@H]2OCCC[C@H]21	-12.8
CCC(NC(=O)c1c(C(=O)O)cnn1C)c1ccc(C)cc1C (stereo not given)	-3.68
CCCOC1CCCN(C(=O)c2ccnnc2)C1 (stereo not given)	-2.27
CSCCC(=O)NCc1cc2n(n1)CCCN(C1CCCCC1)C2	34.5
CSCCc1c(-c2ccccc2)ncn1CC(C)(C)N1CCCC1	-10.9
O=C(Cc1cccs1)NC1(C(=O)NCC2CC2)CCCC1	-7.33
c1cnn(CCCO[C@@H]2CC[C@H]3[C@H]2OCCN3CC2CC2)c1	-7.2
CCN1CCc2cc(-c3cncn3CC(=O)NC(C)(C)C)ccc21	-6.27
COc1cc2nc3n(c(=O)c2cc1OC)CCN(C(C)=O)CC3	-13.7

Compound	cytotoxicity at 70.5 h [%]
Cc1noc(CCCC(=O)NC(C)c2nnc3n2CCCCC3)n1 (stereo not given)	-1.92
COc1cc(C(=O)N(CCC#N)Cc2ccccn2)cc(OC)c1C	-6.63
CNC(=O)C1CCN(c2cc(C3CCNCC3)nc(C)n2)C1 (stereo not given)	-19.2
Cc1nc2c(c(N(C)CC3Cc4ccccc4CN3C)n1)CCNCC2 (stereo not given)	11.4
OCc1csc(N2C[C@@H](CN3CCCCCC3)[C@@H](CO)C2)n1	-7.86
CN(C)c1ncc(C2Nc3ccccc3C3=NCCCN32)cn1 (stereo not given)	-4.88
O=C(CCc1nc(-c2cccnc2)no1)NCC1CCN(C2CC2)C1 (stereo not given)	-17.6
O=C(Cc1ccc2c(c1)OCCO2)NCCc1nnc2n1CCC2	12.2
CC(=O)NCC1CCC2(CCN(c3nccc(C4CCCC4)n3)CC2)O1 (stereo not given)	-7.84
Cc1cc(C)nc(CN(C)C(=O)c2ccccc2C2CCNC2)c1 (stereo not given)	-5.21
O=c1[nH]ncc(NCCOc2cccc(Br)c2)c1Cl	-5.68
NS(=O)(=O)CC1CCN(c2ncccc2C(F)(F)F)CC1	7.95
CCC(=O)N1CCN(C(=O)c2ccc(COC)o2)[C@H]2CS(=O)(=O)C[C@H]21	-5.66
CNC(=O)CC1CCN(C(=O)Nc2ccc(-c3cc[nH]n3)cc2)CC1	-4.66
O=C(NCCCn1ccnc1)N1CCCC1c1ccsc1 (stereo not given)	24.9
Cc1[nH]c2c(F)cccc2c1CC(=O)N1CCN(C2CCSCC2)CC1	-19.7
CSCC(=O)Nc1ncn(Cc2cccc(Br)c2)n1	-8.51
CN(Cc1ccccc1F)C(C(N)=O)c1ccccc1 (stereo not given)	5.98
CN(C)c1cc2c(nn1)CCN(C(=O)c1cc3ccccc3o1)C2	-11.3
Cn1nc(C2CCCN(Cc3ccccc3)C2)c2nccnc21 (stereo not given)	2.89
Cn1ccc2c(ccn2CC(=O)Nc2ccc(Br)cc2)c1=O	30.5
O=C(CC1CC1)NCc1cn2c(n1)CN(Cc1nccs1)CC2	-6.29
CC(C(=O)N1CCCC1)N1CCCN(C(=O)Oc2ccccc2)CC1 (stereo not given)	-10.6

Compound	cytotoxicity at 70.5 h [%]
CCCc1noc(CN2CCCC2c2noc(C3CC3)n2)n1 (stereo not given)	-4.28
CCC(CNC1CCN(C(C)=O)CC1)Oc1ccccc1Cl (stereo not given)	5.02
O=C(CCCc1nnc(-c2ccccc2)o1)N1CCN(CCO)CC1	-32.4
Cc1cccc(CN2CCc3onc(Cn4cccc4)c3C2)n1	-2.56
C=C(C)COc1cccc(CNCc2nc3ccccc3c(=O)[nH]2)c1	0.0265
CCOc1ccc(NC2CCN(C3CC3)C2=O)cn1 (stereo not given)	-1.16
O=C(COC1CCOC1)N(CC(F)F)c1cccc(Cl)c1 (stereo not given)	-3.13
CCS(=O)(=O)N1CCc2cc(C(=O)NC)c(NCC(C)C)nc2CC1	-4.65
CN(Cc1ccco1)[C@@H]1CN(C(=O)c2cnccn2)C[C@@H]2CCCO[C@@H]21	-2.85
O=C(c1cn(CCN2CCCCC2)nn1)N1CCSCC1	-1.47
CCc1nc(C2CCCN2C(=O)c2ccc3c(c2)COC3)no1 (stereo not given)	-2.9
CCc1nc(N2CCC3(CCC(=O)N(CCCO)C3)CC2)no1	9.45
CC(C)OC(=O)N1CCC(Nc2ncc(Br)cn2)CC1	-2.18
CN1CC(C(=O)Nc2ccc(OCC(F)(F)C(F)F)nc2)CC1=O (stereo not given)	-7.73
CCOC(=O)CCC(=O)N1CCC(Oc2ccc(C(F)(F)F)cn2)CC1	-4.1
O=C(NCc1cccnc1)N1CCSCC1CCO (stereo not given)	13.2
Cc1noc(-c2cccnc2N2CCN(c3cnn(C)c3)CC2)n1	-12
c1cc(CN2CCc3ncc(CN4CCCCC4)n3CC2)cs1	19.1
c1csc(-c2noc(CN3CCc4c(ncn4C4CC4)C3)n2)c1	-14.5
C[C@@H]1CN(C(=O)c2cccn2C)C[C@]12CCN(c1ccsc1)C2=O	-13.8
Cc1ccc(C(=O)N2CCCCC2CNC(N)=O)s1 (stereo not given)	-6.25
Cc1ccccc1OCCn1cnc2oc(C)c(C(=O)O)c2c1=O	-7.96
O=C(O)c1cncc(Cc2cccc(F)c2)c1	-7.96
